From patent US7396837B2, “Antitumoral analogs of lamellarins” (Pharma Mar, S.A.U., priority 2002, dated 2008)
Read-outs that look alike come from different tables or passages of the source.

Assays:
Type in all cases: cell-based
[1] = test system: IGROV; test: SRB colorimetric cell growth inhibition assay, IGROV; conditions: IGROV; for GI50: GI=growth inhibition, read-out: GI50 IGROV; for CC50: cell killing (cytotoxic effect), read-out: LC50 IGROV
Source text: (§1) The finality of these assays is to interrupt the growth of an “in vitro” tumor cell culture by means a continued exhibition of the cells to the sample to be testing.
(§2) A colorimetric type of assay, using sulforhodamine B (SRB) reaction has been adapted for a quantitative measurement of cell growth and viability (following the technique described by P. A. Skehan, et al., J. Natl. Cancer Inst. 1990, 82, 1107-1112).
(§3) This form of assay employs 96 well cell culture microplates of 9 mm diameter (T. Mosmann et al., J. of Immunological Methods 1983, 65, 55-63; G. T. Faircloth et al., J. of Tissue and Culture Methods 1988, 11, 201-205).
(§4) Most of the cell lines are obtained from American Type Culture Collection (ATCC) derived from different human cancer types.
(§5) The values for mean +/− SD of data from triplicate wells are calculated. Some parameters for cellular responses can be calculated: GI=growth inhibition, TGI=total growth inhibition (cytostatic effect) and LC=cell killing (cytotoxic effect).

[2] = test system: SK-MEL-28; test: SRB colorimetric cell growth inhibition assay, SK-MEL-28; conditions: for GI50: GI=growth inhibition, read-out: GI50 MEL-28; for CC50: cell killing (cytotoxic effect), read-out: LC50 MEL-28
Source text: as §1, §2, §3, §4, §5

[3] = test system: A-549; test: SRB colorimetric cell growth inhibition assay, A-549; conditions: for GI50: GI=growth inhibition, read-out: GI50 A-549; for CC50: cell killing (cytotoxic effect), read-out: LC50 A-549; for IC (TGI): read-out: TGI A-549
Source text: as §1, §2, §3, §4, §5

[4] = test system: HeLa; test: SRB colorimetric cell growth inhibition assay, HeLa; conditions: Homo sapiens, HeLa; for GI50: GI=growth inhibition, read-out: GI50 HELA; for CC50: read-out: LC50 HELA; for IC (TGI): read-out: TGI HELA
Source text: as §1, §2, §3, §4, §5

[5] = test system: LoVo-Dox; test: SRB colorimetric cell growth inhibition assay, LoVo-Dox (MDR); conditions: LOVO-DOX; for GI50: GI=growth inhibition, read-out: GI50 LOVO-DOX; for CC50: cell killing (cytotoxic effect), read-out: LC50 LOVO-DOX
Source text: as §1, §2, §3, §4, §5

[6] = test system: SK-BR-3; test: SRB colorimetric cell growth inhibition assay, SK-BR-3; conditions: for GI50: GI=growth inhibition, read-out: GI50 SK-BR-3; for CC50: cell killing (cytotoxic effect), read-out: LC50 SK-BR-3
Source text: as §1, §2, §3, §4, §5

[7] = test system: IGROV-ET; test: SRB colorimetric cell growth inhibition assay, IGROV-ET (ET-743 resistant); conditions: IGROV-ET; for GI50: GI=growth inhibition, read-out: GI50 IGROV-ET; for CC50: cell killing (cytotoxic effect), read-out: LC50 IGROV-ET
Source text: as §1, §2, §3, §4, §5

[8] = test system: LoVo; test: SRB colorimetric cell growth inhibition assay, LoVo; conditions: for GI50: GI=growth inhibition, read-out: GI50 LOVO; for CC50: cell killing (cytotoxic effect), read-out: LC50 LOVO
Source text: as §1, §2, §3, §4, §5

[9] = test system: DU-145; test: SRB colorimetric cell growth inhibition assay, DU-145; conditions: for GI50: GI=growth inhibition, read-out: GI50 DU-145; for CC50: cell killing (cytotoxic effect), read-out: LC50 DU-145
Source text: as §1, §2, §3, §4, §5

[10] = test system: HeLa-APL; test: SRB colorimetric cell growth inhibition assay, HeLa-APL (aplidine resistant); conditions: Homo sapiens; for GI50: read-out: GI50 HELA-APL; for CC50: read-out: LC50 HELA-APL; for IC (TGI): read-out: TGI HELA-APL
Source text: as §1, §2, §3, §4, §5

[11] = test system: PANC-1; test: SRB colorimetric cell growth inhibition assay, PANC-1; conditions: for GI50: GI=growth inhibition, read-out: GI50 PANC-1; for CC50: cell killing (cytotoxic effect), read-out: LC50 PANC-1
Source text: as §1, §2, §3, §4, §5

[12] = test system: HT-29; test: SRB colorimetric cell growth inhibition assay, HT-29; conditions: for GI50: GI=growth inhibition, read-out: GI50 HT-29; for CC50: cell killing (cytotoxic effect), read-out: LC50 HT-29
Source text: as §1, §2, §3, §4, §5

[13] = Homo sapiens, SK-MEL-28, MEL-28
[14] = Homo sapiens, A549, A-549, total growth inhibition (cytostatic effect)
[15] = cell killing (cytotoxic effect)
[16] = total growth inhibition (cytostatic effect)
[17] = HELA-APL, cell killing (cytotoxic effect)
[18] = HELA-APL, total growth inhibition (cytostatic effect)
[19] = MEL-28, total growth inhibition (cytostatic effect)
[20] = SK-BR-3, total growth inhibition (cytostatic effect)
[21] = LOVO, total growth inhibition (cytostatic effect)
[22] = DU-145, total growth inhibition (cytostatic effect)
[23] = PANC-1, total growth inhibition (cytostatic effect)
[24] = HT-29, total growth inhibition (cytostatic effect)

SMILES: COc1cc(-c2c3c4cc(OC)c(OC(=O)CCC5CCCCC5)cc4oc(=O)c3n3ccc4cc(OC(=O)CCC5CCCCC5)c(OC)cc4c23)ccc1OC(=O)CCC1CCCCC1 [Compound 12]
- GI50 ([1]; Homo sapiens): 1.42 µM
- CC50 ([1]; Homo sapiens): 8.01 µM
- IC (TGI) ([1]; Homo sapiens, total growth inhibition (cytostatic effect), read-out: TGI IGROV): 3.38 µM
- GI50 [2, 13]: 1.77 µM
- CC50 [2, 13]: 10.9 µM
- IC (TGI) ([2]; Homo sapiens, SK-MEL-28, MEL-28, total growth inhibition (cytostatic effect), read-out: TGI MEL-28): 5.98 µM
- GI50 ([3]; Homo sapiens, A549, A-549): 1.2 µM
- CC50 ([3]; Homo sapiens, A549, A-549): 10.9 µM
- IC (TGI) [3, 14]: 6.64 µM
- GI50 [4]: 1.66 µM
- CC50 [4, 15]: 10.9 µM
- IC (TGI) [4, 16]: 7.5 µM
- GI50 ([5]; Homo sapiens): 10.9 µM
- CC50 ([5]; Homo sapiens): 10.9 µM
- IC (TGI) ([5]; Homo sapiens, total growth inhibition (cytostatic effect), read-out: TGI LOVO-DOX): 10.9 µM
- GI50 ([6]; Homo sapiens, SK-BR-3, SK-BR-3): 0.698 µM
- CC50 ([6]; Homo sapiens, SK-BR-3, SK-BR-3): 10.9 µM
- IC (TGI) ([6]; Homo sapiens, SK-BR-3, SK-BR-3, total growth inhibition (cytostatic effect), read-out: TGI SK-BR-3): 3.45 µM
- GI50 ([7]; Homo sapiens): 10.9 µM
- CC50 ([7]; Homo sapiens): 10.9 µM
- IC (TGI) ([7]; Homo sapiens, total growth inhibition (cytostatic effect), read-out: TGI IGROV-ET): 10.9 µM
- GI50 ([8]; Homo sapiens, LoVo): 1.83 µM
- CC50 ([8]; Homo sapiens, LoVo): 10.9 µM
- IC (TGI) ([8]; Homo sapiens, LoVo, total growth inhibition (cytostatic effect), read-out: TGI LOVO): 7.41 µM
- GI50 ([9]; Homo sapiens, DU-145, DU-145): 0.249 µM
- CC50 ([9]; Homo sapiens, DU-145, DU-145): 7.07 µM
- IC (TGI) ([9]; Homo sapiens, DU-145, DU-145, total growth inhibition (cytostatic effect), read-out: TGI DU-145): 1.43 µM
- GI50 ([10]; HELA-APL, GI=growth inhibition): 3.66 µM
- CC50 [10, 17]: 10.9 µM
- IC (TGI) [10, 18]: 10.9 µM
- GI50 ([11]; Homo sapiens, PANC-1, PANC-1): 1.62 µM
- CC50 ([11]; Homo sapiens, PANC-1, PANC-1): 10.9 µM
- IC (TGI) ([11]; Homo sapiens, PANC-1, PANC-1, total growth inhibition (cytostatic effect), read-out: TGI PANC-1): 8.94 µM
- GI50 ([12]; Homo sapiens, HT-29, HT-29): 0.0811 µM
- CC50 ([12]; Homo sapiens, HT-29, HT-29): 10.9 µM
- IC (TGI) ([12]; Homo sapiens, HT-29, HT-29, total growth inhibition (cytostatic effect), read-out: TGI HT-29): 0.841 µM

SMILES: COc1cc2ccn3c(c(-c4ccc(OC(=O)[C@@H](N)Cc5ccccc5)c(OC)c4)c4c5cc(OC)c(OC(=O)[C@@H](N)Cc6ccccc6)cc5oc(=O)c43)c2cc1OC [Compound 13]
- GI50 ([1]; Homo sapiens): 1.29 µM
- CC50 [1]: 12.4 µM
- TGI IGROV [1, 16]: 4.79E−06 Molar
- GI50 ([2]; MEL-28): 3.11 µM
- CC50 ([2]; MEL-28): 12.4 µM
- TGI MEL-28 [2, 19]: 1.09E−05 Molar
- GI50 ([3]; A-549): 0.906 µM
- CC50 ([3]; A-549): 12.4 µM
- IC (TGI) [3, 14]: 12.4 µM
- CC50 [4]: 12.4 µM
- IC (TGI) [4]: 9.63 µM
- GI50 [4]: 1.83 µM
- GI50 [5]: 0.675 µM
- CC50 [5]: 12.4 µM
- TGI LOVO-DOX [5, 16]: 3.42E−06 Molar
- GI50 ([6]; SK-BR-3): 0.0454 µM
- CC50 ([6]; SK-BR-3): 10.2 µM
- TGI SK-BR-3 [6, 20]: 1.13E−07 Molar
- GI50 ([7]; Homo sapiens): 1.96 µM
- CC50 [7]: 12.4 µM
- TGI IGROV-ET [7, 16]: 7.86E−06 Molar
- GI50 ([8]; LOVO): 0.754 µM
- CC50 ([8]; LOVO): 9.02 µM
- TGI LOVO [8, 21]: 2.35E−06 Molar
- CC50 ([9]; DU-145): 12.4 µM
- TGI DU-145 [9, 22]: 3.64E−06 Molar
- GI50 ([9]; Homo sapiens, DU-145, DU-145): 0.832 µM
- GI50 [10]: 2.6 µM
- CC50 [10]: 12.4 µM
- IC (TGI) [10]: 12.1 µM
- GI50 ([11]; PANC-1): 2.43 µM
- CC50 ([11]; PANC-1): 12.4 µM
- TGI PANC-1 [11, 23]: 1.24E−05 Molar
- GI50 ([12]; HT-29): 3.22 µM
- CC50 ([12]; HT-29): 12.4 µM
- TGI HT-29 [12, 24]: 6.39E−06 Molar

SMILES: COc1cc2ccn3c(c(-c4ccc(OC(=O)[C@@H](N)C(C)C)c(OC)c4)c4c5cc(OC)c(OC(=O)[C@@H](N)C(C)C)cc5oc(=O)c43)c2cc1OC [Compound 14]
- GI50 [1]: 0.49 µM
- CC50 [1]: 14 µM
- TGI IGROV [1, 16]: 2.44E−06 Molar
- GI50 ([2]; MEL-28): 1.42 µM
- CC50 ([2]; MEL-28): 14 µM
- TGI MEL-28 [2, 19]: 1.40E−05 Molar
- GI50 ([3]; A-549): 0.555 µM
- TGI A-549 ([3]; A-549, total growth inhibition (cytostatic effect)): 1.40E−05 Molar
- GI50 [4]: 1.83 µM
- CC50 [4, 15]: 12.4 µM
- IC (TGI) [4, 16]: 9.63 µM
- GI50 [5]: 0.497 µM
- TGI LOVO-DOX [5, 16]: 1.45E−06 Molar
- GI50 ([6]; SK-BR-3): 0.0424 µM
- CC50 ([6]; SK-BR-3): 14 µM
- TGI SK-BR-3 [6, 20]: 9.88E−08 Molar
- GI50 [7]: 0.745 µM
- CC50 [7]: 14 µM
- TGI IGROV-ET [7, 16]: 4.97E−06 Molar
- GI50 ([8]; LOVO): 0.597 µM
- TGI LOVO [8, 21]: 2.47E−06 Molar
- GI50 ([9]; DU-145): 0.517 µM
- CC50 ([9]; DU-145): 14 µM
- TGI DU-145 [9, 22]: 2.19E−06 Molar
- GI50 ([10]; HELA-APL, GI=growth inhibition): 2.6 µM
- CC50 [10, 17]: 12.4 µM
- IC (TGI) [10, 18]: 12.1 µM
- GI50 ([11]; PANC-1): 1.18 µM
- TGI PANC-1 [11, 23]: 1.40E−05 Molar
- GI50 ([12]; HT-29): 2.47 µM
- TGI HT-29 [12, 24]: 7.26E−06 Molar
